Patent US9181275B2, “Mercaptoamidine derivatives and methods of use” (AbbVie Inc., priority 2011, dated 2015)

Experiments:
[1] = molecular target: native H3 receptors from rat cerebral cortices (Rattus norvegicus (Rat), UniProt Q9QYN8); assay: H3 receptor competition binding with [3H]-N-α-methylhistamine, rat cerebral cortex membranes; conditions: [3H]-N-α-methylhistamine competition binding
Experimental: Aliquots were frozen at −70° C. until needed.
Membrane preparations were incubated with [^3H]-N-α-methylhistamine (0.5-1.0 nM) in the presence or absence of increasing concentrations of ligands for H3 receptor competition binding. The binding incubations were conducted in a final volume of 0.5 mL TE buffer at 25° C. and were terminated after 30 minutes. Thioperamide (30 μM) was used to define non-specific binding. All binding reactions were terminated by filtration under vacuum onto polyethylenimine (0.3%) presoaked Unifilters (Perkin Elmer Life Sciences) or Whatman GF/B filters followed by three brief washes with 2 mL of ice-cold TE buffer. Bound radiolabel was determined by liquid scintillation counting. For all of the radioligand competition binding assays, IC50 values and Hill slopes were determined by Hill transformation of the data and pKi values were determined by the Cheng-Prusoff equation.

[2] = tested on: locomotor stimulation induced by amphetamine; conditions: animals; Clapham J., et al. 1994; cited from earlier work

native H3 receptors from rat cerebral cortices, sequence (Q9QYN8 whole entry): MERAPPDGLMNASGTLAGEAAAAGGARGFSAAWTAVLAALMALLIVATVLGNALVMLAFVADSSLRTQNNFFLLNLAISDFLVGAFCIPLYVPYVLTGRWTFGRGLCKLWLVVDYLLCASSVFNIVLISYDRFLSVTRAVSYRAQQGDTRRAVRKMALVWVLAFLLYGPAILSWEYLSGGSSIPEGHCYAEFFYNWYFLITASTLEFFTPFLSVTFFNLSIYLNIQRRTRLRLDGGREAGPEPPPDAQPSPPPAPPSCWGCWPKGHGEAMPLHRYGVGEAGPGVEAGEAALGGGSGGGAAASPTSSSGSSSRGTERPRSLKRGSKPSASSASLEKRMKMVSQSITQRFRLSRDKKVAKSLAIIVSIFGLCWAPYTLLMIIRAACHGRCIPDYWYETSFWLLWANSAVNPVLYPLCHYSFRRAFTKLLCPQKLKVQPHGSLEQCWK

SMILES | Ki [1] [nM] | rat cortex (pKi) [1] | effect on amphetamine-induced locomotor stimulation [2]
CC1=C(c2ccc(OCCCN3CCC[C@H]3C)cc2)SC2=NCc3ccccc3CN21 [Example 3, 3-methyl-2-(4-{3-[(2R)-2-methylpyrrolidin-1-yl]propoxy}phenyl)-5,10-dihydro[1,3]thiazolo[3,2-b][2,4]benzodiazepine] | 0.02 | 10.7 | 
CC1=C(c2ccc(OCCCN3CCCCC3)cc2)SC2=NCc3ccccc3CN21 [Example 2, 3-methyl-2-[4-(3-piperidin-1-ylpropoxy)phenyl]-5,10-dihydro[1,3]thiazolo[3,2-b][2,4]benzodiazepine] | 0.05 | 10.3 | 
S=C(NC1CCCCC1)N1CCC(c2cnc[nH]2)CC1 [thioperamide] |  |  | suppresses the locomotor stimulation induced by amphetamine
CC1=C(c2ccc(OCCCN3CCOCC3)cc2)SC2=NCc3ccccc3CN21 [Example 4, 3-methyl-2-[4-(3-morpholin-4-ylpropoxy)phenyl]-5,10-dihydro[1,3]thiazolo[3,2-b][2,4]benzodiazepine] | 0.324 | 9.49 | 
